Results from ChEMBL document CHEMBL6074621, “Recent advances of honokiol:pharmacological activities, manmade derivatives and structure-activity relationship” (Eur J Med Chem, 2024).
Values belong to the compound of their own block, whether it stands above or below them.

Experiments:
L02 = experiment: Antiproliferative activity against human LO2 cells; format: functional, cell-based
SMMC-7721 = experiment: Antiproliferative activity against human SMMC-7721 cells; format: functional, cell-based
Homo sapiens = species: Homo sapiens; experiment: Inhibition of human pancreatic lipase at 10 uM relative to control
HT-29 = experiment: Antiproliferative activity against human HT-29 cells assessed as reduction in cell growth after 72 hrs by MTT assay; format: functional, cell-based; details: HT-29, 72 h
HCT-116 = experiment: Antiproliferative activity against human HCT-116 cells assessed as reduction in cell growth after 72 hrs by MTT assay; format: functional, cell-based; details: HCT-116, 72 h
PC-3 = experiment: Antiproliferative activity against human PC-3 cells assessed as reduction in cell growth after 72 hrs by MTT assay; format: functional, cell-based; details: PC-3, 72 h

IC50 (SMMC-7721): 13.1 µM
SMILES: C=CCc1cc(CN2CCC(N)CC2)c(O)c(-c2cc(CC=C)c(O)c(CN3CCC(N)CC3)c2)c1
IC50 (L02): 18 µM

inhibition (Homo sapiens): 81%
SMILES: C/C(Cc1ccc(O)c(-c2ccc3oc(C)cc3c2)c1)=N\NC(=O)c1ccc(O)cc1

IC50 (HT-29): 11.1 µM
IC50 (HCT-116): 9.8 µM
IC50 (PC-3): 19.8 µM
SMILES: C=CCc1cc(CC=C)c(O)c(-c2cc(CC=C)c(O)c(CC=C)c2)c1
